# In patent EP2961788B1, “NANOPARTICLES STABILIZED WITH NITROPHENYLBORONIC ACID COMPOSITIONS” (priority 2013, dated 2014):
# Like-named read-outs stand apart in the source and are kept apart here.
# Test system: BT-474 xenograft tumors
# Description: Treatments began on day 1. […] All treatments were freshly prepared and given via intravenous tail vein injection. Injections were standardized at 150 µl per 20 g body weight of mice. […] Tumor sizes were recorded three times a week using caliper measurements (length x width^2/2) and health of the animals was continuously monitored. Animals were euthanized when tumor volumes exceeded 1000 mm^3. Six weeks after beginning of the treatment, animals were euthanized by CO2 asphyxiation.
# [1] = 8 mg/kg, once per week for 3 weeks
# [2] = 80 mg/kg, once per week for 3 weeks
Structure (SMILES),"Nend (number of animals surviving to end of study) (8 mg/kg (MAP-CPT: CPT basis), i.v. once per week for 3 weeks)",NTRD (number of treatment related death) [1],Nreg to zero [1],tumor inhibition compared to control group [1],NTRD (number of treatment related death) [2],Neuthan (number of animals euthanized due to exceeding tumor size limit of 1000 mm^3) [2],Nreg to zero [2],tumor inhibition compared to control group [2]
"CC[C@@]1(O)C(=O)OCc2c1cc1n(c2=O)Cc2cc3ccccc3nc2-1 [CPT, Camptothecin]",8/0,4,0,no tumor inhibition,,,,
CCc1c2c(nc3ccc(OC(=O)N4CCC(N5CCCCC5)CC4)cc13)-c1cc3c(c(=O)n1C2)COC(=O)[C@]3(O)CC [Irinotecan],,,,,1,0,0,non-significant tumor inhibition
